Patent publication US10206906B2, “Synergistic combination of a phenolic-rich maple syrup extract and an antibiotic” (priority 2015, dated 2019)

Assays:
[1] = test system: proton motive force-driven multidrug efflux pump of E. coli CFT073; assay: Ethidium bromide (EtBr) efflux assay; assay type: cell-based, Escherichia coli; settings: PRMSE, catechol at 0.25 times the MIC; CCCP 100 μM; untreated cells 36.9
Method: (§1) An overnight grown culture of each strain is diluted 1:100 using MHB-II broth to a final volume of 10 mL and grown to an OD600 of 0.8-1.0 (at 37° C., 150 rpm). […] The tubes are incubated for 1 h (37° C., 150 rpm). The inoculum is then adjusted to 0.4 OD600 with MHB-II broth containing 5 μM EtBr and 2 mL aliquots of this mixture are pelleted (5000×g, 10 min at 4° C.). The pellets are incubated on ice immediately, resuspended in 1 mL of MHB-II, and aliquoted (200 μL) into a polystyrene 96 well black, clear-bottom plate (Corning™, Fisher Scientific, ON, Canada). EtBr efflux from the cells is monitored at room temperature using the microplate reader (ex/em 530/600 nm). Readings are taken at 5 min intervals for 1 h to monitor efflux pump activity. The background fluorescence of the medium is subtracted from all measurements and the assay is repeated independently in triplicate.

[2] = test system: outer membrane of P. mirabilis HI4320; assay: Outer membrane permeabilization, NPN uptake assay; assay type: cell-based, Proteus mirabilis; settings: sub-MIC; concentration giving maximal increase in NPN uptake
Method: (§2) The cells are harvested, washed with 5 mM HEPES buffer (pH 7.2), and resuspended in the same volume (10 mL) of 5 mM HEPES buffer (pH 7.2) containing 1 mM N-ethylmaleimide (NEM, Sigma-Aldrich Canada). Aliquots (1 mL) are mixed with NPN to a final concentration of 10 μM (in cell suspension) and fluorescence is measured using the microplate reader (ex/em 350/420 nm).

P. mirabilis HI4320 [3] = assay: Checkerboard microdilution assay (growth inhibition synergy); assay type: cell-based, Proteus mirabilis
Method: (§3) The checkerboard microdilution assay is used for evaluation of in vitro antimicrobial synergy between two compounds (i.e., antibiotic/PRMSE, antibiotic/pure phenolic compound, and pure phenolic compounds with each other). Two-fold serial dilutions are prepared in MHB-II for each of the two compounds under study. The serial dilutions are then loaded into 96 well plates to achieve combinations having different concentrations of each of the two compounds. Each well is subsequently inoculated with 10^6 CFU mL^−1 of the desired bacterial strain and incubated at 37° C. for 18 h under static conditions. The Fractional Inhibitory Concentration Index (FICI) for each combination is calculated by using the following formula: FICcomponent 1=MICcomponent 1, in combination/MICcomponent 1,alone FICI=FICcomponent 1+FICcomponent 2
(§4) The FICIs are interpreted as follows: FICI of […] (synergy); 0.5<FICI ≤1 (no interaction/indifference); FICI of >4 (antagonism).

P. aeruginosa PAO1 [4] = assay: as above; assay type: cell-based, Pseudomonas aeruginosa
Method: as §3, §4

P. aeruginosa PA14 [5] = assay: as above; assay type: cell-based, Pseudomonas aeruginosa
Method: as §3, §4

E. coli CFT073 [6] = assay: Bacterial colony forming ability (CFU counts after exposure); assay type: cell-based, Escherichia coli; settings: log decrease vs untreated control, 4 × MIC, 10 min, CTAB 10 μM
Method: (§5) The BacLight kit (L-13152, Invitrogen™, Life Technologies Inc., Canada) is used to assess cell membrane damage. Overnight bacterial cultures are diluted 1:40 in fresh MHBII broth to a final volume of 5 mL, grown to an OD600 of 0.5-0.6, washed with filter-sterilized 10 mM phosphate buffered saline (PBS, pH 7.0) and resuspended in 1/10 of the original volume. […] Cultures are incubated at room temperature (21±2° C.) on a tube rocker for 10 min. At the end of the incubation period, an aliquot is taken for CFU counts and the remaining suspension is washed with 10 mM PBS and resuspended to an OD600) of 0.3. An aliquot (100 μL) of each bacterial suspension is removed and added to a 96-well, black, clear-bottom plate (Corning™, Fisher Scientific, ON, Canada) along with an equal volume of the BacLight™ reagent (2× stock solution, L13152, Invitrogen™, Life Technologies Inc., Canada) and the plates are incubated for 10 min at room temperature in the dark. At the end of the incubation period, fluorescence intensity is recorded for both kit components, SYTO-9 (ex/em 485/530 nm) and propidium iodide (ex/em 485/645 nm), using the microplate reader. Fluorescence readings from samples are normalized to the values obtained from untreated control to determine the ratio of membrane compromised cells to cells with intact membrane. Cetyltrimethylammonium bromide (CTAB, Sigma-Aldrich Canada), a cationic detergent that is known to cause membrane damage, is used at concentration of 10 μM as a positive control for membrane disruption.

P. aeruginosa PAO1 [7] = assay: as above; assay type: cell-based, Pseudomonas aeruginosa; settings: log decrease vs untreated control; 4 × MIC, 10 min; CTAB 10 μM
Method: as §5

P. aeruginosa PA14 [8] = assay: as above; assay type: cell-based, Pseudomonas aeruginosa; settings: log decrease vs untreated control, 4 × MIC, 10 min, CTAB 10 μM
Method: as §5

[9] = test system: outer membrane of P. aeruginosa PA14; assay: Outer membrane permeabilization, NPN uptake assay; assay type: cell-based, Pseudomonas aeruginosa; settings: sub-MIC; concentration giving maximal increase in NPN uptake
Method: as §2

[10] = test system: outer membrane of P. aeruginosa PAO1; assay: Outer membrane permeabilization, NPN uptake assay; assay type: cell-based, Pseudomonas aeruginosa; settings: sub-MIC; concentration giving maximal increase in NPN uptake
Method: as §2

[11] = test system: proton motive force-driven multidrug efflux pump of P. mirabilis HI4320; assay: Ethidium bromide (EtBr) efflux assay; assay type: cell-based, Proteus mirabilis; settings: PRMSE, catechol at 0.25 times the MIC; CCCP 100 μM; untreated cells 35.9
Method: as §1

E. coli CFT073 [12] = assay: Checkerboard microdilution assay (growth inhibition synergy); assay type: cell-based, Escherichia coli
Method: as §3, §4

P. mirabilis HI4320 [13] = assay: Bacterial colony forming ability (CFU counts after exposure); assay type: cell-based, Proteus mirabilis; settings: log decrease vs untreated control, 4 × MIC, 10 min, CTAB 10 μM
Method: as §5

[14] = ciprofloxacin in combination with the labelled phenolic constituent
[15] = labelled constituent + gallic acid, * = synergistic
[16] = labelled constituent combined with gallic acid
[17] = labelled phenolic constituent in combination with ciprofloxacin

Oc1ccccc1O [catechol, 1,2-dihydroxybenzene]
Efflux pump activity [1]: 34.3%
Minimum permeabilization concentration [2]: 1 mg/mL
FIC of ciprofloxacin (P. mirabilis HI4320 [3]; [14]): 0.25
FICI, gallic acid (P. mirabilis HI4320 [3]; [15]): 0.37*
FIC, gallic acid (P. mirabilis HI4320 [3]; [16]): 0.13
FIC of compound (P. mirabilis HI4320 [3]; [17]): 0.25
FIC of ciprofloxacin (P. aeruginosa PAO1 [4]; [14]): 0.25
FICI, gallic acid (P. aeruginosa PAO1 [4]; [15]): 0.5*
FIC, gallic acid (P. aeruginosa PAO1 [4]; [16]): 0.25
FIC of compound (P. aeruginosa PAO1 [4]; [17]): 0.25
FIC of ciprofloxacin (P. aeruginosa PA14 [5]; [14]): 0.25
FICI, gallic acid (P. aeruginosa PA14 [5]; [15]): 0.37*
FIC, gallic acid (P. aeruginosa PA14 [5]; [16]): 0.25
FIC of compound (P. aeruginosa PA14 [5]; [17]): 0.25
Bacterial colony forming ability (Δ log CFU mL^−1) (E. coli CFT073 [6]): 2.3 Δ log CFU mL^−1
Bacterial colony forming ability (Δ log CFU mL^−1) (E. coli CFT073 [6]; listed as Catechol): ≥ 1.5 Δ log CFU mL^−1
Bacterial colony forming ability (Δ log CFU mL^−1) (P. aeruginosa PAO1 [7]): 1.5 Δ log CFU mL^−1
Bacterial colony forming ability (Δ log CFU mL^−1) (P. aeruginosa PA14 [8]): 1.9 Δ log CFU mL^−1
Bacterial colony forming ability (Δ log CFU mL^−1) (P. aeruginosa PA14 [8]; listed as Catechol): ≥ 1.5 Δ log CFU mL^−1
Minimum permeabilization concentration [9]: 0.5 mg/mL
Minimum permeabilization concentration [10]: 0.5 mg/mL
Efflux pump activity [11]: 33.9%
FIC of ciprofloxacin (E. coli CFT073 [12]; [14]): 0.25
FICI, gallic acid (E. coli CFT073 [12]; [15]): 0.25*
FIC, gallic acid (E. coli CFT073 [12]; [16]): 0.13
FIC of compound (E. coli CFT073 [12]; [17]): 0.25
Bacterial colony forming ability (Δ log CFU mL^−1) (P. mirabilis HI4320 [13]): 3.2 Δ log CFU mL^−1
Bacterial colony forming ability (Δ log CFU mL^−1) (P. mirabilis HI4320 [13]; listed as Catechol): ≥ 1.5 Δ log CFU mL^−1
